This is an account of results in patent publication US8119805B2, “Substituted disulfonamide compounds” (Gruenenthal GmbH, priority 2008, dated 2012).

In test [1] the target is T1, human B1R receptor (hB1R) (Homo sapiens, UniProt P46663).
T1 construct: expressed in transfected cells; host or cells: CHO K1 cells
T1 sequence (P46663 1-353): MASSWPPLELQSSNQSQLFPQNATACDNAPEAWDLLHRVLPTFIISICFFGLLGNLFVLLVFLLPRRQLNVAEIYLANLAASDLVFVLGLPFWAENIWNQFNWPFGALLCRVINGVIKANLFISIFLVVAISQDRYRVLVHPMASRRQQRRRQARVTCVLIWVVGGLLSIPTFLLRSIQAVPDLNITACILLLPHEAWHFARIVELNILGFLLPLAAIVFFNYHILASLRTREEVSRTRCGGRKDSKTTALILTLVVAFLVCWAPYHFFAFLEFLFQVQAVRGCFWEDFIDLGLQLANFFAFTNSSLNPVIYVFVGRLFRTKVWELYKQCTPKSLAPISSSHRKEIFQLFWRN
Nature of the test: Functional investigation on the bradykinin 1 receptor (B1R), FLIPR Ca2+ assay, hB1R cells. Type of test: cell-based. The note with it: test substance 10 μM; CHO K1 cells transfected with human B1R gene; Fluo-4 Ca2+ signal; agonist Lys-Des-Arg9-bradykinin at EC80; % of maximum achievable inhibition; read-out: B1R antagonism, human [10 μM] % inhibition. The procedure, abridged:
(§1)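 CHO K1 cells stably expressing human or rat B1R, Fluo-4 loaded, read by FLIPR (λex 488, λem 540 nm). Test compound (10 μM) first gave % activation against Lys-Des-[MUT]-bradykinin ≥50 nM (hB1R) or Des-[MUT]-bradykinin 10 μM (rB1R). After 10–20 min, agonist at EC80 was added; % inhibition or IC50 from concentration series, n=2–3, N≥2.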

The target of test [2] is T2, B1R receptor of the rat (rB1R) (Rattus norvegicus, UniProt P97583).
T2 construct: expressed in transfected cells; host or cells: CHO K1 cells
T2 sequence (P97583 1-337): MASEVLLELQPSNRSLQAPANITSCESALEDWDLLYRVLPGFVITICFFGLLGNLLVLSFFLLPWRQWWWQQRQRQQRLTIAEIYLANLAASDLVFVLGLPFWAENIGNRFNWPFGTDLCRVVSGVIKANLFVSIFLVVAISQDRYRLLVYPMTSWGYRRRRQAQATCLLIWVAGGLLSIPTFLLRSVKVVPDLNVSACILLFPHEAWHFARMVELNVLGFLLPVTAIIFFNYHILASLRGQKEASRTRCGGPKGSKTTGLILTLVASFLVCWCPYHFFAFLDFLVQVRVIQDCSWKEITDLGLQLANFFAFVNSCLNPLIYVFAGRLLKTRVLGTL
Briefly: Functional investigation on the bradykinin 1 receptor (B1R), FLIPR Ca2+ assay, rB1R cells. Type of test: cell-based. The note with it: test substance 10 μM; CHO K1 cells transfected with rat B1R gene; Fluo-4 Ca2+ signal; agonist Des-Arg9-bradykinin at EC80; % of maximum achievable inhibition; read-out: B1R antagonism, rat [10 μM] % inhibition. The procedure, abridged: as §1

Molecules are shown by their SMILES. Counter-ions that a name gives are not always drawn.

As to `COc1cc(C)c(S(=O)(=O)N2CCC[C@H]2CCCS(=O)(=O)N2CCC(Oc3ccncc3)CC2)c(C)c1` [Example 47, (S)-4-(1-(3-(1-(4-Methoxy-2,6-dimethylphenylsulfonyl)pyrrolidin-2-yl)propylsulfonyl)piperidin-4-yloxy)pyridine], the inhibition at 10 µM in test [1] and in test [2] was 95% throughout.
On to `O=S(=O)(CCC[C@@H]1CCCN1S(=O)(=O)c1ccccc1C(F)(F)F)N1CCC(Oc2ccncc2)CC1` [Example 48, (S)-4-(1-(3-(1-(2-(Trifluoromethyl)phenylsulfonyl)pyrrolidin-2-yl)propylsulfonyl)piperidin-4-yloxy)pyridine], for which the inhibition (commonly the drop in the measured response relative to a control, in per cent) at 10 µM in test [1] was determined as 81%; in test [2] it was 75%.
On the same counts, the results for `O=S(=O)(CCC[C@@H]1CCCN1S(=O)(=O)c1ccc2ccccc2c1)N1CCC(Oc2ccncc2)CC1` [Example 49, (S)-4-(1-(3-(1-(Naphthalen-2-ylsulfonyl)pyrrolidin-2-yl)propylsulfonyl)piperidin-4-yloxy)pyridine] are 30% and 36%.
Consider `O=S(=O)(CCC[C@@H]1CCCN1S(=O)(=O)c1cccc2ccccc12)N1CCC(Oc2ccncc2)CC1` [Example 50, (S)-4-(1-(3-(1-(Naphthalen-1-ylsulfonyl)pyrrolidin-2-yl)propylsulfonyl)piperidin-4-yloxy)pyridine], for which the values for the inhibition at 10 µM in test [1] and in test [2] were 58% and 71%, respectively.
Take `O=S(=O)(CCC[C@@H]1CCCN1S(=O)(=O)c1ccc(Cl)cc1Cl)N1CCC(Oc2ccncc2)CC1` [Example 51, (S)-4-(1-(3-(1-(2,4-Dichlorophenylsulfonyl)pyrrolidin-2-yl)propylsulfonyl)piperidin-4-yloxy)pyridine]: the inhibition at 10 µM came to 74% in test [1] and 93% in test [2].
For `O=S(=O)(CCC[C@@H]1CCCN1S(=O)(=O)c1cccc(Cl)c1Cl)N1CCC(Oc2ccncc2)CC1` [Example 52, (S)-4-(1-(3-(1-(2,3-Dichlorophenylsulfonyl)pyrrolidin-2-yl)propylsulfonyl)piperidin-4-yloxy)pyridine], the values for the inhibition at 10 µM in test [1] and in test [2] were 71% and 87%, respectively.
Regarding `Cc1cc(S(=O)(=O)N2CCC[C@H]2CCCS(=O)(=O)N2CCC(Oc3ccncc3)CC2)c(C)cc1Cl` [Example 53, (S)-4-(1-(3-(1-(4-Chloro-2,5-dimethylphenylsulfonyl)pyrrolidin-2-yl)propylsulfonyl)piperidin-4-yloxy)pyridine], the results for the inhibition at 10 µM in test [1] and in test [2] were 74% and 86%, respectively.
Consider `COc1cc(C)c(S(=O)(=O)N2CCC[C@H]2CCCS(=O)(=O)N2[C@@H]3CC[C@H]2C[C@H](Oc2ccncc2)C3)c(C)c1` [Example 54, (1R,3R,5S)-8-(3-((S)-1-(4-Methoxy-2,6-dimethylphenylsulfonyl)pyrrolidin-2-yl)propylsulfonyl)-3-(pyridin-4-yloxy)-8-azabicyclo[3.2.1]octane], for which the inhibition at 10 µM in test [1] is 100%; in test [2], 98%.
On the same counts, the results for `Cc1cccc(Cl)c1S(=O)(=O)N1CCC[C@H]1CCCS(=O)(=O)N1[C@@H]2CC[C@H]1C[C@H](Oc1ccncc1)C2` [Example 55, (1R,3R,5S)-8-(3-((S)-1-(2-Chloro-6-methylphenylsulfonyl)pyrrolidin-2-yl)propylsulfonyl)-3-(pyridin-4-yloxy)-8-azabicyclo[3.2.1]octane] are 98% and 98%.
Consider `O=S(=O)(CCC[C@@H]1CCCN1S(=O)(=O)c1ccccc1C(F)(F)F)N1[C@@H]2CC[C@H]1C[C@H](Oc1ccncc1)C2` [Example 56, (1R,3R,5S)-3-(Pyridin-4-yloxy)-8-(3-((S)-1-(2-(trifluoromethyl)phenylsulfonyl)pyrrolidin-2-yl)propylsulfonyl)-8-azabicyclo[3.2.1]octane], for which the inhibition at 10 µM in test [1] was 95%; in test [2], 99%.
In the case of `O=S(=O)(CCC[C@@H]1CCCN1S(=O)(=O)c1ccc2ccccc2c1)N1[C@@H]2CC[C@H]1C[C@H](Oc1ccncc1)C2` [Example 57, (1R,3R,5S)-8-(3-((S)-1-(Naphthalen-2-ylsulfonyl)pyrrolidin-2-yl)propylsulfonyl)-3-(pyridin-4-yloxy)-8-azabicyclo[3.2.1]octane], the results for the inhibition at 10 µM in test [1] and in test [2] were 25% and 54%, respectively.
For the compound `O=S(=O)(CCC[C@@H]1CCCN1S(=O)(=O)c1cccc2ccccc12)N1[C@@H]2CC[C@H]1C[C@H](Oc1ccncc1)C2` [Example 58, (1R,3R,5S)-8-(3-((S)-1-(Naphthalen-1-ylsulfonyl)pyrrolidin-2-yl)propylsulfonyl)-3-(pyridin-4-yloxy)-8-azabicyclo[3.2.1]octane], the inhibition at 10 µM in test [1] amounted to 56%; in test [2], 94%.
Regarding `O=S(=O)(CCC[C@@H]1CCCN1S(=O)(=O)c1ccc(Cl)cc1Cl)N1[C@@H]2CC[C@H]1C[C@H](Oc1ccncc1)C2` [Example 59, (1R,3R,5S)-8-(3-((S)-1-(2,4-Dichlorophenylsulfonyl)pyrrolidin-2-yl)propylsulfonyl)-3-(pyridin-4-yloxy)-8-azabicyclo[3.2.1]octane], the inhibition at 10 µM is 94% in test [1] and 96% in test [2].
Turning to `O=S(=O)(CCC[C@@H]1CCCN1S(=O)(=O)c1cccc(Cl)c1Cl)N1[C@@H]2CC[C@H]1C[C@H](Oc1ccncc1)C2` [Example 60, (1R,3R,5S)-8-(3-((S)-1-(2,3-Dichlorophenylsulfonyl)pyrrolidin-2-yl)propylsulfonyl)-3-(pyridin-4-yloxy)-8-azabicyclo[3.2.1]octane], the inhibition at 10 µM amounted to 89% in test [1] and 100% in test [2].
Take `Cc1cc(S(=O)(=O)N2CCC[C@H]2CCCS(=O)(=O)N2[C@@H]3CC[C@H]2C[C@H](Oc2ccncc2)C3)c(C)cc1Cl` [Example 61, (1R,3R,5S)-8-(3-((S)-1-(4-Chloro-2,5-dimethylphenylsulfonyl)pyrrolidin-2-yl)propylsulfonyl)-3-(pyridin-4-yloxy)-8-azabicyclo[3.2.1]octane]: the inhibition at 10 µM was 75% in test [1] and 97% in test [2].
Taken in the same sequence, the figures for `Cc1cccc(Cl)c1S(=O)(=O)N1CCC[C@H]1CCCS(=O)(=O)N1CCC2(CCC(Oc3ccncc3)CC2)CC1` [Example 62, 3-(3-((S)-1-(2-Chloro-6-methylphenylsulfonyl)pyrrolidin-2-yl)propylsulfonyl)-9-(pyridin-4-yloxy)-3-azaspiro[5.5]undecane] were 84% and 104%.
Turning to `COc1cc(C)c(S(=O)(=O)N2CCC[C@H]2CCCS(=O)(=O)N2CCC3(CCC(N4CC(F)(F)C4)CC3)CC2)c(C)c1` [Example 63, 9-(3,3-Difluoroazetidin-1-yl)-3-(3-((S)-1-(4-methoxy-2,6-dimethylphenylsulfonyl)pyrrolidin-2-yl)propylsulfonyl)-3-azaspiro[5.5]undecane], the inhibition at 10 µM in test [1] stood at 99%; in test [2], 102%.
Consider `COc1cc(C)c(S(=O)(=O)N2CCC[C@H]2CCCS(=O)(=O)N2CCC3(CCN(c4ccncc4)CC3)CC2)c(C)c1` [Example 64, 3-(3-((S)-1-(4-Methoxy-2,6-dimethylphenylsulfonyl)pyrrolidin-2-yl)propylsulfonyl)-9-(pyridin-4-yl)-3,9-diazaspiro[5.5]undecane], for which the inhibition at 10 µM in test [1] and in test [2] was 99% each time.
For the compound `Cc1cccc(Cl)c1S(=O)(=O)N1CCC[C@H]1CCCS(=O)(=O)N1CCC2(CCN(c3ccncc3)CC2)CC1` [Example 65, 3-(3-((S)-1-(2-Chloro-6-methylphenylsulfonyl)pyrrolidin-2-yl)propylsulfonyl)-9-(pyridin-4-yl)-3,9-diazaspiro[5.5]undecane], the results for the inhibition at 10 µM in test [1] and in test [2] were 99% and 97%, respectively.
`COc1cc(C)c(S(=O)(=O)N2CCC[C@H]2CCCS(=O)(=O)N2CCC3(CCC(Oc4ccncc4)CC3)CC2)c(C)c1` [Example 66, 3-(3-((S)-1-(4-Methoxy-2,6-dimethylphenylsulfonyl)pyrrolidin-2-yl)propylsulfonyl)-9-(pyridin-4-yloxy)-3-azaspiro[5.5]undecane hydrochloride]: the inhibition at 10 µM in test [1] was found to be 100%; in test [2], 102%.
